Data as given in patent US20230285516A1 (priority 2020, published 2023).

What was measured:
[1] = system: mice with CIA; assay: Histopathological analysis of hind legs, collagen-induced arthritis (CIA) models; format: in vivo; details: H&E and PAS, intramuscular weekly for 6 weeks
Protocol: (§1) Early Arthritis Model. Fifty mice with the same characteristics were immunized at the base of the tail with 100 μg of chicken type II collagen emulsified in complete Freund's adjuvant. The boost was applied on day 21 at the base of the tail with 100 μg of type II collagen emulsified with Freund's incomplete adjuvant. On the same boosting day, the treatments (a-d) were applied every week for six weeks. Three animals were euthanized in the sixth week and three in the thirteenth week. The spleen, lymph nodes, joint tissue, liver, lungs, kidneys and heart were obtained in order to assess the inflammatory infiltrate, the predominant cell populations and the expression of pro- and anti-inflammatory cytokines.
(§2) Established Arthritis Model. Arthritis was induced as in the previous model in 50 mice and the treatments were applied intramuscularly, after 2 weeks of the boost, every week for 6 weeks. Three animals were euthanized in the eighth week and three in the fifteenth week. The spleen, lymph nodes, joint tissue, liver, lungs, kidneys and heart were obtained in order to assess the inflammatory infiltrate, the predominant cell populations and the expression of pro- and anti-inflammatory cytokines.
Histological evaluation. The inflammatory infiltrate and tissue architecture were evaluated by H&E and Masson's trichrome staining and the content of proteoglycans, with the PAS technique. […]

[2] = system: Treg (CD4+/FOXP3+) cells; assay: FACS of spleen Foxp3+ regulatory T cells in CIA models; format: in vivo, mice; details: early and long-standing arthritis, first and second sacrifice, vs placebo
Protocol: as §1, §2
Cytometric evaluation. Using FACS, the percentage of populations of Th1 ([…]), Th2 (CD4^+/IL-4^+), Treg (CD4^+/FOXP3^+) Th17 (CD4^+/IL-17^+) and dendritic (CD4−/CD11c^+) cells in spleen cells.
FIG. 10. Effect of type I polymerized collagen in the early (preventive) and long-standing (late or palliative) arthritis model on the percentage of spleen CD4+ T cell subpopulations. (A) Spleen cells obtained ex vivo in the early arthritis model during the first sacrifice. (B) Spleen cells obtained ex vivo in the early arthritis model during the second sacrifice. (C) Spleen cells obtained ex vivo in the long-standing arthritis model during the first sacrifice. […] The intracellular production of IL-17A, IL-4, IFN-γ and Foxp3 by CD4+ T cells was detected by flow cytometry. The results are representative of 6 mice analyzed in each group. […]

CN(Cc1cnc2nc(N)nc(N)c2n1)c1ccc(C(=O)N[C@@H](CCC(=O)O)C(=O)O)cc1 [MTX, methotrexate, reference compound]
histopathology of joint tissue (inflammation, tissue architecture) [1]: induced some tissue abnormalities
Foxp3+ regulatory T cells [2]: significant reduction
